Here are results for 51 molecules from US6261814A, “Carboxylic acid reductase, and methods of using same” (University of Iowa Research Foundation, priority 1998, dated 2001).

Assay [1] has as its target T1, carboxylic acid reductase (aryl aldehyde oxidoreductase) (Nocardia iowensis, UniProt Q6RKB1). In words: Substrate specificity of crude carboxylic acid reductase (100,000×g supernatant). Type of assay: biochemical, Nocardia sp. NRRL 5646. More on the design: Crude enzyme preparations consisting of 100,000×g supernatants were used in this study; endogenous in cells; host or cells: Nocardia sp; NRRL 5646, crude 100,000×g supernatant. Conditions: for Relative Activity: 5 mM substrate, 0.15 mM NADPH, 1 mM ATP, 50 mM Tris-HCl pH 7.5, percentage of the initial rate of benzoate reduction; for quality as substrate of the enzyme (in words): substrates of Table 2. How it is done: (§1) Enzyme assay. The standard aryl-aldehyde oxidoreductase assay solution contained 0.15 mM […], 1 mM ATP, and 5 mM sodium benzoate, 10 mM MgCl2 and 0.01 to 0.3 units of enzyme in 50 mM Tris-HCl buffer in a final volume of 0.7 ml. The reference cuvette contained all components except for benzoate. Enzyme reactions were initiated by adding enzyme, and they were monitored by recording the absorption decrease at 340 nm at 25° C. with a Shimadzu 160 spectrophotometer.
Crude enzyme preparations consisting of 100,000×g supernatants were used in this study. […] The relative rate of reduction for each carboxylic acid derivative is expressed as the percentage of the initial rate of benzoate reduction.
The range of oxidoreductase activities of crude, 100,000×g Nocardia extract with a variety of substrates was investigated. Various substituted 2-, 3- and 4-substituted benzoates were examined, including a range of ring-activating and ring-deactivating functional groups. Benzoates substituted with halogens, methyl, methoxy, hydroxy, acetyl, nitro, benzoyl, phenyl, and phenoxyl groups as well as aryl-ring systems containing two (naphthalene) and three (fluorene) rings, and heterocyclic aromatic acids including furoic, nicotinic and indole carboxylic acids were considered. In addition, one cinnamic acid derivative, phenyl-acetate, phenyl-malonate, phenyl-succinate and 2-phenylpropionic acid were studied.

Assay [2] concerns the target T1, carboxylic acid reductase (aryl aldehyde oxidoreductase). In words: Kinetic properties of the purified carboxylic acid reductase (standard enzyme assay). The note with it: for apparent Km relative to Km reported for the enzyme from Nocardia asteroides: higher than values reported by Kato et al.; for turn-over number: calculated assuming pure enzyme and one active site per molecule; for Vmax: mean of three determinations; for type of inhibition: versus benzoic acid. How it is done:
as §1
Kinetic constants were obtained by fitting experimental data with the EZ-FIT program developed by Perrella (Perrella, Anal. Biochem. 174:437-447 (1987)).
S(+)-α-Methyl-4-[2-methylpropyl]-benzeneacetic acid (ibuprofen) was from Aldrich Chemical Co. R(-) isomer of ibuprofen was a gift from Dr. Ching-Shih Chen, University of Rhode Island (Chen et al., Biochim. Biophys. Acta 1033:1-6 (1990)). […] Substrate enantiopurities were checked by specific rotation determination for each isomer (Chen and Rosazza, Appl. Environ. Microbiol. 60(4):1292-1296 (1994)).

T1 sequence (Q6RKB1 whole entry): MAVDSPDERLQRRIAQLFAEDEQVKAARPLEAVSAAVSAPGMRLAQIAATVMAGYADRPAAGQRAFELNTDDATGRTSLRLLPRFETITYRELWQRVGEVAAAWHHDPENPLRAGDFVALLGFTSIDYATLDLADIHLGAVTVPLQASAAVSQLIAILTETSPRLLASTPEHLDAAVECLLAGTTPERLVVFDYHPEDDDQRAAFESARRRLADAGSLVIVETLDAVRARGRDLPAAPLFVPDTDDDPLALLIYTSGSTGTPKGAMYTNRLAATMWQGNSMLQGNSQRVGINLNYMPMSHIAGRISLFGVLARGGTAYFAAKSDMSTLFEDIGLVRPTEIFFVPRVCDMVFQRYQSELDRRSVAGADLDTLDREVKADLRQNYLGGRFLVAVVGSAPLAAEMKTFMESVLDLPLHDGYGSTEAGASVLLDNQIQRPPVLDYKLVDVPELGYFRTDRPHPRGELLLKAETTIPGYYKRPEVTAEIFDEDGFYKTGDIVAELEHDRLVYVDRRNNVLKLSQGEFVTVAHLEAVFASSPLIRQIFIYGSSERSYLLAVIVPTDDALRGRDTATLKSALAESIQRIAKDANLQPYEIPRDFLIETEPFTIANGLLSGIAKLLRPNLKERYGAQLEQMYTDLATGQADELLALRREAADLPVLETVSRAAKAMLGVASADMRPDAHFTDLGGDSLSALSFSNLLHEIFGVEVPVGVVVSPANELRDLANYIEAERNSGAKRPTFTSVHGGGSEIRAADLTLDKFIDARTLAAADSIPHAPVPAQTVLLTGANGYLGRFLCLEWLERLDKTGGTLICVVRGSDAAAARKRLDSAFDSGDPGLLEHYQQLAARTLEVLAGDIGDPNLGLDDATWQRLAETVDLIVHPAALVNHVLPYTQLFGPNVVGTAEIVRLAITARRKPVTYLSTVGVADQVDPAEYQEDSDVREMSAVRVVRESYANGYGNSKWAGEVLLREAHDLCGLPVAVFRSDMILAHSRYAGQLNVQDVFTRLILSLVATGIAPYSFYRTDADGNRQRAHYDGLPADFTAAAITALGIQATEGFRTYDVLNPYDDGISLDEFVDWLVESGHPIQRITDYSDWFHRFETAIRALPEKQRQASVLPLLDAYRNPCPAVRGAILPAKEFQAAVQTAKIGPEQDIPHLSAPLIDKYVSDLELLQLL

Take `O=C(O)c1cccc2ccccc12` [1-naphthoic acid]: the “Relative Activity” value in assay [1] turned out to be 77 percentage.

Turning to `CC(=O)c1ccccc1C(=O)O` [2-acetyl-benzoic acid], in assay [1], the “Relative Activity” value is 4 percentage. Still for that read-out and setting: the figure for `CC(=O)Nc1ccccc1C(=O)O` [2-acetylamino-benzoic acid] is 0 percentage. On to `COc1ccccc1C(=O)O` [2-anisic acid], for which, in assay [1], the “Relative Activity” value is 3 percentage. As to `O=C(O)c1ccccc1C(=O)c1ccccc1` [2-benzoyl-benzoic acid], in assay [1], the “Relative Activity” value is on record as 0 percentage.

For the molecule `O=C(O)c1ccccc1Br` [2-bromo-benzoic acid], the “Relative Activity” value in assay [1] was found to be 5 percentage. Regarding `O=C(O)c1ccccc1Cl` [2-chloro-benzoic acid], the “Relative Activity” value in assay [1] stood at 3 percentage.

For the molecule `O=C(O)c1ccccc1F` [2-fluoro-benzoic acid], the “Relative Activity” value in assay [1] was 57 percentage.

Regarding `O=C(O)c1ccco1` [2-furoic acid], the “Relative Activity” value in assay [1] is given as 18 percentage. On the same count and under the same terms, the figure for `O=C(O)c1ccccc1O` [2-hydroxyl-benzoic acid] is 0 percentage. Turning to `O=C(O)c1ccc2ccccc2c1` [2-naphthoic acid], in assay [1], the “Relative Activity” value is given as 95 percentage and the “quality as substrate of the enzyme (in words)” value (“quality as substrate” below) is “best substrates”. For `O=C(O)c1ccccc1[N+](=O)[O-]` [2-nitro-benzoic acid], the “Relative Activity” value in assay [1] amounted to 0 percentage. With `CC(C(=O)O)c1ccccc1` (stereo not drawn) [2-phenyl propionic acid], in assay [1], the “Relative Activity” value turned out to be 16 percentage and the “quality as substrate” value was “slower rates than benzoate”. As for `O=C(O)c1ccccc1-c1ccccc1` [2-phenyl-benzoic acid], the “Relative Activity” value in assay [1] is on record as 16 percentage. On the same count and under the same terms, the figure for `Cc1ccccc1C(=O)O` [2-toluic acid] is 6 percentage. On to `COc1cccc(C(=O)O)c1` [3-anisic acid], for which, in assay [1], the “Relative Activity” value is on record as 87 percentage and the “quality as substrate” value is “best substrates”. For the molecule `O=C(O)c1cccc(C(=O)c2ccccc2)c1` [3-benzoyl-benzoic acid], the “Relative Activity” value in assay [1] came to 53 percentage. As to `O=C(O)c1cccc(Br)c1` [3-bromo-benzoic acid], in assay [1], the “Relative Activity” value was 105 percentage and the “quality as substrate” value is “best substrates”.

Turning to `O=C(O)c1cccc(Cl)c1` [3-chloro-benzoic acid], in assay [1], the “Relative Activity” value turned out to be 124 percentage and the “quality as substrate” value was “best substrates”. With `O=C(O)c1cccc(F)c1` [3-fluoro-benzoic acid], in assay [1], the “Relative Activity” value is listed as 78 percentage. Still for that read-out and setting: to `O=C(O)c1ccoc1` [3-furoic acid] belongs 22 percentage; to `O=C(O)c1cccc(O)c1` [3-hydroxyl-benzoic acid], 77 percentage; to `COc1cccc(C=CC(=O)O)c1` [3-methoxy-cinnamic acid], 8 percentage. Still for that read-out and setting: to `O=C(O)c1cccc([N+](=O)[O-])c1` [3-nitro-benzoic acid] belongs 0 percentage. On the same count and under the same terms, the figure for `Cc1cccc(C(=O)O)c1` [3-toluic acid] is 4 percentage; for `CC(=O)c1ccc(C(=O)O)cc1` [4-acetyl-benzoic acid] it is 20 percentage. Turning to `CC(=O)Nc1ccc(C(=O)O)cc1` [4-acetylamino-benzoic acid], in assay [1], the “Relative Activity” value is listed as 22 percentage. Consider `COc1ccc(C(=O)O)cc1` [4-anisic acid], for which the “Relative Activity” value in assay [1] is listed as 36 percentage. The same measure, in the same setting: to `O=C(O)c1ccc(C(=O)c2ccccc2)cc1` [4-benzoyl-benzoic acid] belongs 6 percentage. On to `O=C(O)c1ccc(Br)cc1` [4-bromo-benzoic acid], for which the “Relative Activity” value in assay [1] was 72 percentage. For `O=C(O)c1ccc(F)cc1` [4-fluoro-benzoic acid], in assay [1], the “Relative Activity” value is 94 percentage and the “quality as substrate” value is “best substrates”. On to `O=C(O)c1ccc(O)cc1` [4-hydroxyl-benzoic acid], for which the “Relative Activity” value in assay [1] was 6 percentage. In the case of `O=C(O)c1ccc([N+](=O)[O-])cc1` [4-nitro-benzoic acid], in assay [1], the “Relative Activity” value was 0 percentage. `O=C(O)c1ccc(Oc2ccccc2)cc1` [4-phenoxy-benzoic acid]: in assay [1], the “Relative Activity” value stood at 11 percentage. On the same count and under the same terms, to `O=C(O)c1ccc(-c2ccccc2)cc1` [4-phenyl-benzoic acid] belongs 21 percentage. Take `Cc1ccc(C(=O)O)cc1` [4-toluic acid]: in assay [1], the “Relative Activity” value was found to be 82 percentage and the “quality as substrate” value is “best substrates”. In the case of `Nc1ncnc2c1ncn2[C@@H]1O[C@H](COP(=O)(O)OP(=O)(O)OP(=O)(O)O)[C@@H](O)[C@H]1O` [ATP], in assay [2], the “apparent Km relative to Km reported for the enzyme from Nocardia asteroides” value is given as “more than 1000 fold”. For the molecule `NC(=O)C1=CN([C@@H]2O[C@H](COP(=O)(O)OP(=O)(O)OC[C@H]3O[C@@H](n4cnc5c(N)ncnc54)[C@H](OP(=O)(O)O)[C@@H]3O)[C@@H](O)[C@H]2O)C=CC1` [NADPH], the “apparent Km relative to Km reported for the enzyme from Nocardia asteroides” value in assay [2] is “more than 1000 fold”. As to `CC(C)Cc1ccc([C@@H](C)C(=O)O)cc1` [R(-)-ibuprofen], in assay [2], the turn-over number is 21 min⁻¹. Also, the Vmax is listed as 1.33+0.02 μmol/min/mg of protein in assay [2] (purified enzyme, listed as R(-) isomer) and 0.15 μmol/min/mg of protein in assay [2] (purified enzyme, listed as R-(-)).

Consider `CC(C)Cc1ccc([C@H](C)C(=O)O)cc1` [S(+)-ibuprofen, S(+)-α-Methyl-4-[2-methylpropyl]-benzeneacetic acid], for which, in assay [2], the turn-over number was 186 min⁻¹. Moreover, the Vmax is 0.148±0.003 μmol/min/mg of protein in assay [2] (purified enzyme, listed as S(+) isomer) and 1.33 μmol/min/mg of protein in assay [2] (purified enzyme, listed as S-(+)). Regarding `Nc1ccccc1C(=O)O` [anthranilic acid, 2-amino benzoic acid], the Ki (in general, the equilibrium dissociation constant of an inhibitor or competing ligand from its target) in assay [2] came out at 261 ± 30 µM. The “NADPH oxidation with the compound in place of benzoic acid” value in assay [2] (5 mM in the enzyme assay solution) is reported as “no NADPH oxidation was observed”. The type of inhibition result is reported as “typical competitive inhibitor” in assay [2] (listed as 2-amino benzoic acid) and “competitive inhibitor” in assay [2] (listed as Anthranilic acid).

As to `O=Cc1ccccc1` [benzaldehyde], the “reduction of benzaldehyde to benzyl alcohol” value in assay [2] (purified enzyme) was “did not reduce”. As to `O=C(O)c1cccc2c1Cc1ccccc1-2` [fluorene-1-carboxylic acid], the “Relative Activity” value in assay [1] is recorded as 17 percentage. As to `O=C(O)c1cc2ccccc2[nH]1` [indole-2-carboxylic acid], the “Relative Activity” value in assay [1] turned out to be 0 percentage.

Take `O=C(O)c1c[nH]c2ccccc12` [indole-3-carboxylic acid]: the “Relative Activity” value in assay [1] is 2 percentage. On the same count and under the same terms, the figure for `O=C(O)c1cccc2[nH]ccc12` [indole-4-carboxylic acid] is 0 percentage; for `O=C(O)c1ccc2[nH]ccc2c1` [indole-5-carboxylic acid] it is 10 percentage. Regarding `O=C(O)c1cccnc1` [nicotinic acid], in assay [1], the “Relative Activity” value is reported as 5 percentage and the “quality as substrate” value was “slower rates than benzoate”. As to `O=C(O)Cc1ccccc1` [phenyl acetic acid], in assay [1], the “Relative Activity” value turned out to be 43 percentage and the “quality as substrate” value is “slower rates than benzoate”. For `O=C(O)C(C(=O)O)c1ccccc1` [phenyl malonic acid], in that order: 3 percentage and “slower rates than benzoate”. For `O=C(O)CC(C(=O)O)c1ccccc1` (stereo not drawn) [phenyl succinic acid], in that order: 11 percentage and “slower rates than benzoate”.
